# Assay results from patent US9458200B2, “Method for producing intermediates for the production of novel macrocycles that are inhibitors of the proteasomic degradation of p27, such as argyrin and derivatives thereof, and uses of said macrocycles” (Gottfried Wilhelm Leibniz Universität Hannover, priority 2008, dated 2016).
# Starred links: 1 amine or outer side, 2 acyl side, 3 side chain; linkers in the order of their positions; H or OH if unused. Non-standard residues stand in square brackets, D forms with d. Residues, ends and D or L forms follow the SMILES beside them. Trp(4-OMe) = COc1cccc2[nH]cc(C[C@H](N)C(=O)O)c12; X1 = O=C(c1csc([C@@H](CO)N[*:1])n1)[*:2]; Dha = C=C(N)C(=O)O; Sar = CNCC(=O)O
# Legend:
# [1] = target: T1, erythrocyte-derived 20S proteasome, chymotrypsin-like activity (Homo sapiens, UniProt P20618+P28074); test: 20S-Proteasome-Test (manual), chymotrypsin-like substrate; assay type: biochemical
# T1 construct: using erythrocyte-derived 20S proteasome; purchased Biomol International PW8720; host or cells: human erythrocytes
# Experimental: (§1) Proteasome assays with purified 20S proteasome were performed as previously described (Lightcap, E. S. et al. Proteasome inhibition measurements: clinical application. Clin Chem 46, 673-83 (2000)) using erythrocyte-derived 20S proteasome (Biomol International,#LP PW8720) and fluorometric substrates Succ-LLVY-AMC, BZ-VGR-AMC and Z-Lle-AMC (Biomol International, LP PW9905) as probes according to the manufacturers instructions. Proteasome extraction from cells and tumor sections was done as previously described (Crawford, L. J. et al. Comparative selectivity and specificity of the proteasome inhibitors BzLLLCOCHO, PS-341, and MG-132. Cancer Res 66, 6379-86 (2006)). Briefly cells (MEF or MCF-7) or tissue sample homogenate (tumor sections) were re-suspended in 1 mL ATP/DTT lysis buffer (10 mmol/L Tris-HCl (pH7.8), 5 mmol/L ATP, 0.5 mmol/L DTT, 5 mmol/L MgCl2), and incubated on ice for 10 minutes, followed by sonication for 15 seconds. The lysates were centrifuged at 400×g for 10 min at 4° C., and the resulting supernatant containing proteasomes was stable at −80° C. with the addition of 20% glycerol for at least 1 month. Protein concentration of the samples was measured using a coomassie protein assay (Pierce, Rockford, Ill.).
# (§2) Proteasome assays with purified 20S proteasome were performed as previously described (Lightcap et al., 2000) using erythrocyte-derived 20S proteasome (Biomol International,#LP PW8720) and fluorometric substrates Succ-LLVY-AMC, BZ-VGR-AMC and Z-Lle-AMC (Biomol International, LP PW9905). Proteasome extraction from cells and tumor sections was done as previously described (Crawford et al., 2006). For proteasome extraction from whole blood, frozen whole blood cell pellets were thawed and lysed in 2-3 pellet volumes cold lysis buffer (5 mM EDTA, pH 8.0). […] The rate of cleavage of fluorogenic peptide substrates was determined by monitoring the fluorescence of released aminomethylcoumarin using a Victor 1420 Multilabel counter (Wallac) at an excitation wavelength of 395 nm and emission wavelength of 460 nm over a period of 60 min. […]
# [2] = target: T2, erythrocyte-derived 20S proteasome, caspase-like activity (Homo sapiens, UniProt P28072+Q99436); test: 20S-Proteasome-Test (manual), caspase-like substrate; assay type: biochemical
# T2 construct: using erythrocyte-derived 20S proteasome; purchased Biomol International PW8720; host or cells: human erythrocytes
# Experimental: as §1, §2
# [3] = test system: SW-480 (colon cancer cell line); test: MTT-test, proliferation of SW-480; assay type: cell-based
# Experimental: MTT assays were done as previously described (Sasse, F. et al. Argyrins, immunosuppressive cyclic peptides from myxobacteria. I. Production, isolation, physico-chemical and biological properties. J Antibiot (Tokyo) 55, 543-51 (2002)). TUNEL staining of tissue sections was performed on 10 micrometer sections which were deparafinised and treated as recommended by the manufacturer. (In Situ Cell Death Detection Kit, Fluorescein; ROCHE, Cat #11 684 795 910). Flow cytometric analysis of cultured cells was done using a Becton Dickinson fluorescence cytometer as previously described (Malek, N.P. et al. A mouse knock-in model exposes sequential proteolytic pathways that regulate p27^Kip1 in G1 and S phase. Nature 413, 323-7 (2001)). Analysis of the distribution of cells in the cell cycle and the sub-G1 fraction was done using Cell Quest software. A histone-associated-DNA-fragments ELISA was used to determine the number of apoptotic cells according to manufacturers instructions (Roche #11 774425001).
# [4] = test system: H15GFP-p27 clone (HeLa-cell line; cervix-carcinoma); test: GFP-fluorescence per FACS of p27-GFP clone H15GFP-p27; assay type: cell-based; details: GFP-fluorescence per FACS after 24 h incubation, 500 ng/ml
# Text: (§3) The following table summarizes the effects of […]-derivatives B and F on two cancer cell lines, H15 (cervix carcinoma) and SW-480 (colon cancer). In order to test the efficacy, a p27-GFP-clone was used. [table]
# SW-480 (colon cancer) = test: MIC (visual), serial dilution, SW-480 cells; assay type: cell-based; details: minimal concentration of a serial dilution exhibiting a visual effect
# Text: as §3
# H15 (cervix carcinoma) = test: MIC (visual), serial dilution, H15 cells; assay type: cell-based; details: minimal concentration of a serial dilution exhibiting a visual effect
# Text: as §3
# [5] = target: T3, erythrocyte-derived 20S proteasome, trypsin-like activity (Homo sapiens, UniProt P49720+Q99436); test: 20S-Proteasome-Test (manual), trypsin-like substrate; assay type: biochemical
# T3 construct: using erythrocyte-derived 20S proteasome; purchased Biomol International PW8720; host or cells: human erythrocytes
# Experimental: as §1, §2
# 20S proteasome = test system: T4, 20S proteasome; test: Proteasome-assay, overall comparison in words (all three subunits); assay type: biochemical, human; details: compared with argyrin F
# T4 construct: using erythrocyte-derived 20S proteasome; purchased Biomol International PW8720; host or cells: human erythrocytes
# Experimental: as §1
# Proteasome assays with purified 20S proteasome were performed as previously described (Lightcap et al., 2000) using erythrocyte-derived 20S proteasome (Biomol International,#LP PW8720) and fluorometric substrates Succ-LLVY-AMC, BZ-VGR-AMC and Z-Lle-AMC (Biomol International, LP PW9905). Proteasome extraction from cells and tumor sections was done as previously described (Crawford et al., 2006). For proteasome extraction from whole blood, frozen whole blood cell pellets were thawed and lysed in 2-3 pellet volumes cold lysis buffer (5 mM EDTA, pH 8.0). Lysates were spun down at 4° C. and the supernatant was transferred to a fresh tube. 5 μl was taken for the determination of protein concentration using a coomassie protein assay (Pierce, Rockford, Ill.). Proteasome assays using proteasome purified from cells or tissues were carried out in a 100 μL reaction volume containing 20 μg proteasome extract, 50 mmol/L EDTA and 60 μmol/L fluorogenic substrate (chymotrypsin-like(CT-L), trypsin-like(T-L) or caspase-like (C-L)) in ATP/DTT lysis buffer at 37° C. The assay buffer was supplemented with a final concentration of 0.05% SDS for the evalution of the chymotrypsin-like activity and caspase-like activity. The rate of cleavage of fluorogenic peptide substrates was determined by monitoring the fluorescence of released aminomethylcoumarin using a Victor 1420 Multilabel counter (Wallac) at an excitation wavelength of 395 nm and emission wavelength of 460 nm over a period of 60 min.
rel. activ. in % after 20 min. ([1]; conc. in test 200 μmol/L) [%],rel. activ. in % after 20 min. ([2]; conc. in test 200 μmol/L) [%],"IC50 ([3]; Homo sapiens, SW480, half-maximal inhibition of proliferation, read-out: IC-50 SW-480) [µg/mL]",rel. activ. in % after 20 min. ([5]; conc. in test 200 μmol/L) [%],Molecule,Mean of FSC-H (Log) H15 p27-GFP-clone [4],MIC (visual) SW-480 (SW-480 (colon cancer)) [µg/mL],MIC (visual) HIS (H15 (cervix carcinoma)) [µg/mL],"inhibiting effect on the proteasome, compared in words (20S proteasome)","inhibiting effect on the proteasome, compared in words (20S proteasome; listed as Argyrin Ala alpha)",rel. activ. in % after 20 min. ([1]; conc. in test 100 μmol/L) [%],rel. activ. in % after 20 min. ([2]; conc. in test 100 μmol/L) [%],rel. activ. in % after 20 min. ([5]; conc. in test 100 μmol/L) [%],IC-50 SW-480 ([3]; half-maximal inhibition of proliferation),"inhibiting effect on the proteasome, compared in words (20S proteasome; listed as argyrin Ala beta)"
15,17,0.05,32,C=C1NC(=O)[C@@H](C)NC(=O)CNC(=O)[C@H](Cc2c[nH]c3cccc(OC)c23)NC(=O)[C@H](Cc2c[nH]c3ccccc23)NC(=O)c2csc(n2)[C@@H](CO)NC(=O)CN(C)C1=O [Argyrin F] (cyclo([Dha][Sar][X1]W[Trp(4-OMe)]G[dA])),11.24,0.2,0.5,–,–,–,–,–,–,–
–,–,–,–,C=C1NC(=O)[C@@H](C)NC(=O)[C@@H](C)NC(=O)[C@H](Cc2c[nH]c3cccc(OC)c23)NC(=O)[C@H](Cc2c[nH]c3ccccc23)NC(=O)c2csc(n2)[C@@H](CO)NC(=O)CN(C)C1=O [Argyrin ala alpha] (cyclo([Dha][Sar][X1]W[Trp(4-OMe)][dA][dA])),–,–,–,higher activities than Argyrin F,slightly less active,17,11,72,–,–
–,–,–,–,Argyrin B,7.60,12,12,–,–,–,–,–,Ca. 0.05 μg/ml,–
–,–,–,–,C=C1NC(=O)[C@@H](C)NC(=O)[C@H](C)NC(=O)[C@H](Cc2c[nH]c3cccc(OC)c23)NC(=O)[C@H](Cc2c[nH]c3ccccc23)NC(=O)c2csc(n2)[C@@H](CO)NC(=O)CN(C)C1=O [Argyrin ala beta] (cyclo(A[dA][Dha][Sar][X1]W[Trp(4-OMe)])),–,–,–,higher activities than Argyrin F,–,8,7,26,–,stronger inhibiting effect on the proteasome than argyrin F
